This note sets out measurements from ChEMBL document CHEMBL1201862, “PubChem BioAssay data set” (2004).

Some test systems named below: UACC-62; OVCAR-4; HOP-62; HOP-92; CAKI-1; SNB-75; HCC 2998; UACC-257; T47D; SK-MEL-5; 786-0; NCI-H23; SR; MDA-MB-435; MDA-N; UO-31; NCI-H460; U-251; OVCAR-5.
What all share (assay): DTP human tumour cell line panel, 48 h

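Protocol summary: plate cells (96-well), add compound at 5 concentrations, incubate 48 h, interpolate endpoints linearly. Here, GI50 denotes the concentration required for 50% inhibition of growth.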 Calls of active or inactive are those of the source. Rule as the data show it: active = GI50 up to about 1.1 µM and inactive = higher. Some results are limits rather than exact numbers.

As a reminder, the GI50 is the concentration giving 50% growth inhibition. In the case of `COc1ccc2[nH]c3c([N+](=O)[O-])ccc(NCCN(C)C)c3/c(=N/CCN(C)C)c2c1`, the GI50 in the assay with UACC-62 was 7.23 µM (inactive); with OVCAR-4, 0.521 µM (active); with HOP-62, 0.695 µM (active); in the assay with HOP-92, 5.08 µM (inactive); in the assay with CAKI-1 it was 3.97 µM (inactive); in the assay with SNB-75, 1.8 µM (inactive). The 50% growth inhibitory concentration (GI50) was 0.867 µM (active) in the assay with HCC 2998; > 10 µM (inactive) in the assay on UACC-257; > 10 µM (inactive) in the assay with T47D; 1.86 µM (inactive) with SK-MEL-5; 0.577 µM (active) in the assay with 786-0; 1.49 µM (inactive) with NCI-H23. Also, the GI50 is 0.117 µM (active) in the assay on SR, 1.63 µM (inactive) in the assay with MDA-MB-435 and 1.75 µM (inactive) in the assay with MDA-N.
Consider `C[C@@H](c1ccccc1)n1c(N)c(-c2ccccn2)c2ccc([N+](=O)[O-])cc2c1=O`, for which the GI50 was > 100 µM (inactive) in the assay with UACC-62; 80.2 µM (inactive) with OVCAR-4; 14.5 µM (inactive) with UO-31; 43.1 µM (inactive) in the assay on NCI-H460; 33.3 µM (inactive) in the assay with HOP-92; 51.8 µM (inactive) in the assay on CAKI-1. The GI50 with SNB-75 was 12.8 µM (inactive); in the assay with HCC 2998 it was > 100 µM (inactive); in the assay on UACC-257 it was 22.2 µM (inactive); in the assay on T47D, 43.2 µM (inactive); with SK-MEL-5, 25.7 µM (inactive); with 786-0 it was > 100 µM (inactive). Also, the GI50 is 54.6 µM (inactive) in the assay on NCI-H23; 32.6 µM (inactive) in the assay with SR; 47.5 µM (inactive) in the assay on U-251; 92.7 µM (inactive) with MDA-MB-435; 88.7 µM (inactive) in the assay on MDA-N.
For `COc1cccc(C2ON=C(c3ccccc3)N2C23CC4CC(CC(C4)C2)C3)c1` (stereo not given), the GI50 in the assay on UACC-62 is > 10 µM (inactive); in the assay on OVCAR-4 it was 5.46 µM (inactive); with NCI-H460 it was > 10 µM (inactive); with HOP-62, > 10 µM (inactive); in the assay with HOP-92, > 10 µM (inactive); with CAKI-1, > 10 µM (inactive). The GI50 in the assay with SNB-75 was 8.91 µM (inactive); in the assay with OVCAR-5, > 10 µM (inactive); in the assay with HCC 2998, > 10 µM (inactive); in the assay with UACC-257, > 10 µM (inactive); in the assay on T47D it was > 10 µM (inactive); with SK-MEL-5 it was > 10 µM (inactive). Further, the GI50 in the assay on 786-0 was > 10 µM (inactive); in the assay with NCI-H23 it was > 10 µM (inactive); in the assay with SR, 2.09 µM (inactive); in the assay on U-251 it was > 10 µM (inactive); with MDA-MB-435 it was > 10 µM (inactive); with MDA-N, > 10 µM (inactive).
As to `COc1ccc(/C=C/C2=NN(c3cccc(S(=O)(=O)O)c3)C3(C2)SCC(=O)N3c2nc3ccccc3s2)cc1` (stereo not given), the GI50 with UACC-62 was 54.3 µM (inactive); in the assay on OVCAR-4, 53.1 µM (inactive); in the assay with UO-31 it was 51.1 µM (inactive); in the assay with NCI-H460, 50.7 µM (inactive); with HOP-92, 68.1 µM (inactive); in the assay on CAKI-1 it was > 100 µM (inactive). Besides, the GI50 is > 100 µM (inactive) in the assay on SNB-75; > 100 µM (inactive) in the assay with OVCAR-5; > 100 µM (inactive) in the assay with HCC 2998; 83.8 µM (inactive) in the assay with UACC-257; 16.5 µM (inactive) in the assay on T47D; 58.9 µM (inactive) in the assay on SK-MEL-5. Also, the GI50 is 76.7 µM (inactive) in the assay on 786-0; 40.1 µM (inactive) in the assay on NCI-H23; 19.5 µM (inactive) in the assay on SR; 46.2 µM (inactive) in the assay with U-251; 62.4 µM (inactive) in the assay on MDA-MB-435; > 100 µM (inactive) in the assay with MDA-N.
As to `CC(C#N)(c1ccccc1)N(CCc1ccccc1)C(=O)Oc1ccccc1` (stereo not given), the GI50 in the assay on UACC-62 is > 100 µM (inactive); in the assay with OVCAR-4, 30.7 µM (inactive); with UO-31, > 100 µM (inactive); in the assay on HOP-62, 50.2 µM (inactive); with HOP-92, 10.9 µM (inactive); in the assay with CAKI-1 it was > 100 µM (inactive). The GI50 with SNB-75 is 25.9 µM (inactive); in the assay with OVCAR-5, > 100 µM (inactive); in the assay on HCC 2998, > 100 µM (inactive); with UACC-257, > 100 µM (inactive); in the assay with T47D, > 100 µM (inactive); in the assay with SK-MEL-5 it was > 100 µM (inactive). In addition, the GI50 is 40.6 µM (inactive) in the assay on 786-0; > 100 µM (inactive) in the assay with NCI-H23; > 100 µM (inactive) with SR; > 100 µM (inactive) in the assay with U-251; > 100 µM (inactive) in the assay on MDA-MB-435; > 100 µM (inactive) in the assay with MDA-N.
On to `COC1CC(O[C@H]2CC[C@@]3(C)[C@@H](CC[C@]4(O)[C@@H]3CC[C@]3(C)[C@@H](C(C)=O)[C@H](OC(=O)CC(C)C)[C@@H](OC(=O)c5ccccc5)[C@@]34O)C2)OC(C)C1OC1CC(OC)C(OC2OC(C)C(O)C(OC)C2O)C(C)O1` (stereo not given in full), for which the GI50 is 19.1 µM (inactive) in the assay on OVCAR-4; 9.46 µM (inactive) in the assay on UO-31; 9.53 µM (inactive) in the assay on NCI-H460; 16 µM (inactive) in the assay on HOP-62; 6.55 µM (inactive) in the assay on HOP-92; 17.7 µM (inactive) in the assay with CAKI-1. Further, the GI50 in the assay with SNB-75 was 11.9 µM (inactive); with OVCAR-5 it was > 25 µM (inactive); in the assay on HCC 2998, 9.2 µM (inactive); in the assay on UACC-257, > 25 µM (inactive); with T47D, 8 µM (inactive); in the assay with SK-MEL-5, 17.8 µM (inactive). The GI50 in the assay on 786-0 is > 25 µM (inactive); in the assay with NCI-H23, > 25 µM (inactive); in the assay with SR it was 11.3 µM (inactive); in the assay on U-251, 18 µM (inactive); with MDA-MB-435, 12.2 µM (inactive); with MDA-N, > 25 µM (inactive).
`CCCCCCCCCCCCCCCCCC(=O)OCC(COC1OC(COP(=O)(O)O)C(O)C(O)C1O)OC(=O)CCCCCCCCCCCCCCCCC` (stereo not given): the GI50 was 8.57 µM (inactive) with UACC-62; 7.41 µM (inactive) with OVCAR-4; 11.7 µM (inactive) in the assay on NCI-H460; 8.26 µM (inactive) in the assay with HOP-62; 4.14 µM (inactive) with HOP-92; 9.73 µM (inactive) in the assay with CAKI-1. For the same molecule, the GI50 was 4.63 µM (inactive) with SNB-75; 5.28 µM (inactive) in the assay on OVCAR-5; 7.29 µM (inactive) in the assay on HCC 2998; 8.61 µM (inactive) in the assay on UACC-257; 11.9 µM (inactive) in the assay with T47D; 9.1 µM (inactive) with SK-MEL-5. For the same molecule, the GI50 in the assay on 786-0 was 7.94 µM (inactive); with NCI-H23 it was 7.78 µM (inactive); with SR, 0.0227 µM (active); with U-251, 6.71 µM (inactive); with MDA-MB-435 it was 9.71 µM (inactive); with MDA-N it was 10.7 µM (inactive).
As to `COC1=CCC2=C(CCN(C(=O)C3CCC3)C2Cc2ccc(OC)c(O)c2)C1` (stereo not given), the GI50 was 20.4 µM (inactive) in the assay with UACC-62; 23 µM (inactive) in the assay with OVCAR-4; 12.2 µM (inactive) in the assay with NCI-H460; 14.3 µM (inactive) with HOP-62; 20.9 µM (inactive) with HOP-92; 30.6 µM (inactive) in the assay with CAKI-1. Further, the GI50 in the assay with SNB-75 was 10.7 µM (inactive); with OVCAR-5, 29.5 µM (inactive); in the assay with HCC 2998, 15.1 µM (inactive); in the assay on UACC-257, 17.3 µM (inactive); in the assay with T47D, 19.4 µM (inactive); in the assay on SK-MEL-5, 8.34 µM (inactive). Besides, the GI50 is 18.2 µM (inactive) in the assay on 786-0; 10 µM (inactive) in the assay with NCI-H23; 5.69 µM (inactive) with SR; 28.9 µM (inactive) in the assay on U-251; 3.09 µM (inactive) with MDA-MB-435; 2.7 µM (inactive) with MDA-N.
